Drawing on patent publication US9656988B2 (Pharmacyclics LLC, priority 2013, dated 2017), this text covers IC50 for 18 compounds.

Read-outs that look alike come from different tables or passages of the source. Bounds are passed on as bounds.

The assay has as its target BTK (Homo sapiens (Human), UniProt Q06187). The assay is described as follows: Btk in vitro inhibitory activity (one of Method A TR-FRET, Method B electrophoretic mobility shift, Method C radiometric filter binding). The assay is classed as biochemical.
The mark [1] stands for this setting: determined using one of the methods of Example 355a, 355b and 355c, read-out: BTK IC50.

In general, IC50 refers to the point on the concentration scale where inhibition reaches its midpoint.

Sequence of BTK (Q06187 whole entry): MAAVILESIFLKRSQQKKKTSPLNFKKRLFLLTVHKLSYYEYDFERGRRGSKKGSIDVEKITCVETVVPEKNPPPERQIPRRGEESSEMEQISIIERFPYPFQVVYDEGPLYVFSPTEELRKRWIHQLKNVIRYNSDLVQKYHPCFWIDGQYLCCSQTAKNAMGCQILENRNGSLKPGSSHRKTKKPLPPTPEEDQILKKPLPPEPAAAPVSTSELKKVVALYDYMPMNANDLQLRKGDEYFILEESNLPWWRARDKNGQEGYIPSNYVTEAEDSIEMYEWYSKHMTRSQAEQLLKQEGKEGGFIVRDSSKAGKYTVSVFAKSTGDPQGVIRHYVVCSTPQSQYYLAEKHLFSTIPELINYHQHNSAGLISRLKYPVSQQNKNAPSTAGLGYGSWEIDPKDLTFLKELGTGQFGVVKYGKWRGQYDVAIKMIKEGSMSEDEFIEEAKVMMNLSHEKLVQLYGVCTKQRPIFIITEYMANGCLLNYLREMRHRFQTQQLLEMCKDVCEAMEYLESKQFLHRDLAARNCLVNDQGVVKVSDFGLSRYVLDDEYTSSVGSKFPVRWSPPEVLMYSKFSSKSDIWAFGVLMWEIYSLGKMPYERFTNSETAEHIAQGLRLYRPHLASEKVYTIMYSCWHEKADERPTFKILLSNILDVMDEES

Turning to `NC(=O)c1nnc(N2CCC[C@@H](NC(=O)N3CCCCC3)C2)nc1Nc1ccc(C2CCNCC2)cc1` [Example 335, (R)-5-(4-(piperidin-4-yl)phenylamino)-3-(3-(piperidine-1-carboxamido)piperidin-1-yl)-1,2,4-triazine-6-carboxamide], under setting [1], the 50% inhibitory concentration (IC50) was less than 10 nM. Regarding `NC(=O)c1nnc(N2CCC[C@@H](NC(=O)N3CCCCC3)C2)nc1Nc1ccc(C2CCN(C3CCCC3)CC2)cc1` [Example 336, (R)-5-(4-(1-cyclopentylpiperidin-4-yl)phenylamino)-3-(3-(piperidine-1-carboxamido)piperidin-1-yl)-1,2,4-triazine-6-carboxamide], the IC50 under setting [1] is less than 10 nM and the IC50 (read-out: Btk (IC50)) is less than 10 nM. `NC(=O)c1nnc(N2CCC[C@@H](NC(=O)N3CCCCC3)C2)nc1Nc1ccc(C2CCN(C=O)CC2)cc1` [Example 337, (R)-5-(4-(1-formylpiperidin-4-yl)phenylamino)-3-(3-(piperidine-1-carboxamido)piperidin-1-yl)-1,2,4-triazine-6-carboxamide]: the IC50 is, setting by setting: under setting [1], less than 10 nM; (read-out: Btk (IC50)) less than 10 nM. Regarding `CC(=O)N1CCC(c2ccc(Nc3nc(N4CCC[C@@H](NC(=O)N5CCCCC5)C4)nnc3C(N)=O)cc2)CC1` [Example 338, (R)-5-(4-(1-acetylpiperidin-4-yl)phenylamino)-3-(3-(piperidine-1-carboxamido)piperidin-1-yl)-1,2,4-triazine-6-carboxamide], the IC50 is, setting by setting: under setting [1], less than 10 nM; (read-out: Btk (IC50)) less than 10 nM. For the compound `CCC(=O)N1CCC(c2ccc(Nc3nc(N4CCC[C@@H](NC(=O)N5CCCCC5)C4)nnc3C(N)=O)cc2)CC1` [Example 339, (R)-3-(3-(piperidine-1-carboxamido)piperidin-1-yl)-5-(4-(1-propionylpiperidin-4-yl)phenylamino)-1,2,4-triazine-6-carboxamide], the half-inhibitory concentration (IC50) was less than 10 nM under setting [1] and less than 10 nM (read-out: Btk (IC50)). Consider `C=CC(=O)N1CCC(c2ccc(Nc3nc(N4CCC[C@@H](NC(=O)N5CCCCC5)C4)nnc3C(N)=O)cc2)CC1` [Example 340], for which, under setting [1], the IC50 is less than 10 nM. As for `N#CCC(=O)N1CCC(c2ccc(Nc3nc(N4CCC[C@@H](NC(=O)N5CCCCC5)C4)nnc3C(N)=O)cc2)CC1` [Example 341, (R)-5-(4-(1-(2-cyanoacetyl)piperidin-4-yl)phenylamino)-3-(3-(piperidine-1-carboxamido)piperidin-1-yl)-1,2,4-triazine-6-carboxamide], the IC50 fell in the range of 10 to 100 nM. Further, the 50% inhibitory concentration (IC50) under setting [1] is less than 10 nM. `CCOc1ccc(C(=O)N[C@@H]2CCCN(c3nnc(C(N)=O)c(Nc4ccc(C(=N)N(C)C)cc4)n3)C2)cc1` [Example 342, (R)-5-(4-(N,N-dimethylcarbamimidoyl)phenylamino)-3-(3-(4-ethoxybenzamido)piperidin-1-yl)-1,2,4-triazine-6-carboxamide]: the concentration for half-maximal inhibition (IC50) under setting [1] lay within 10 to 100 nM and the 50% inhibitory concentration (IC50) (read-out: Btk (IC50)) lay in the range of 10 to 100 nM. With `CCOc1ccc(C(=O)N[C@@H]2CCCN(c3nnc(C(N)=O)c(Nc4ccc(C(=N)N5CCCC5)cc4)n3)C2)cc1` [Example 343, (R)-3-(3-(4-ethoxybenzamido)piperidin-1-yl)-5-(4-(imino(pyrrolidin-1-yl)methyl)phenylamino)-1,2,4-triazine-6-carboxamide], the IC50 was less than 10 nM under setting [1] and less than 10 nM (read-out: Btk (IC50)).

On to `CCOc1ccc(C(=O)N[C@@H]2CCCN(c3nnc(C(N)=O)c(Nc4ccc(C5=NCCN5C)cc4)n3)C2)cc1` [Example 344, (R)-3-(3-(4-ethoxybenzamido)piperidin-1-yl)-5-(4-(1-methyl-4,5-dihydro-1H-imidazol-2-yl)phenylamino)-1,2,4-triazine-6-carboxamide], for which, under setting [1], the IC50 lay within 10 to 100 nM. As to `COCCOc1ccc(Nc2nc(N3CCC[C@@H](NC(=O)N[C@@H](C)c4ccccc4)C3)cnc2C(N)=O)cc1` [Example 346, 3-(4-(2-methoxyethoxy)phenylamino)-5-((R)-3-(3-((S)-1-phenylethyl)ureido)piperidin-1-yl)pyrazine-2-carboxamide], under setting [1], the half-maximal inhibitory concentration (IC50) is 10 to 100 nM. On the same count and under the same terms, the figure for `COCCOc1ccc(Nc2nc(N3CCC[C@@H](NC(=O)N[C@H](C)c4ccccc4)C3)cnc2C(N)=O)cc1` [Example 347, 3-(4-(2-methoxyethoxy)phenylamino)-5-((R)-3-(3-((R)-1-phenylethyl)ureido)piperidin-1-yl)pyrazine-2-carboxamide] is 10 to 100 nM; for `Cc1cc(Nc2nc(N[C@@H]3CCCCN(C(=O)N(C)C)C3)cnc2C(N)=O)sn1` [Example 348, (R)-3-(5-carbamoyl-6-(3-methylisothiazol-5-ylamino)pyrazin-2-ylamino)-N,N-dimethylazepane-1-carboxamide] it is 10 to 100 nM; for `CN(C(=O)N[C@@H]1CCCN(c2cnc(C(N)=O)c(NC3CC3)n2)C1)c1ccccc1` [Example 350, (R)-3-(cyclopropylamino)-5-(3-(3-methyl-3-phenylureido)piperidin-1-yl)pyrazine-2-carboxamide] it is 1000 to 10000 nM. Still for that read-out and setting: the figure for `CN(C(=O)N[C@@H]1CCCN(c2cnc(C(N)=O)c(NC3CCCC3)n2)C1)c1ccccc1` [Example 351, (R)-3-(cyclopentylamino)-5-(3-(3-methyl-3-phenylureido)piperidin-1-yl)pyrazine-2-carboxamide] is 1000 to 10000 nM; for `CN(C(=O)N[C@@H]1CCCN(c2cnc(C(N)=O)c(NC3CC3)n2)C1)c1cc(Cl)cc(C(F)(F)F)c1` [Example 352, (R)-5-(3-(3-(3-chloro-5-(trifluoromethyl)phenyl)-3-methylureido)piperidin-1-yl)-3-(cyclopropylamino)pyrazine-2-carboxamide] it is 1000 to 10000 nM; for `CN(C(=O)N[C@@H]1CCCN(c2cnc(C(N)=O)c(NC3CCOCC3)n2)C1)c1cc(Cl)cc(C(F)(F)F)c1` [Example 353, (R)-5-(3-(3-(3-chloro-5-(trifluoromethyl)phenyl)-3-methylureido)piperidin-1-yl)-3-(tetrahydro-2H-pyran-4-ylamino)pyrazine-2-carboxamide] it is 1000 to 10000 nM. Turning to `NC(=O)c1ncc(N2CCC[C@@H](NC(=O)NC3CCOCC3)C2)nc1NC1CCOCC1` [Example 354, (R)-5-(3-(3-(tetrahydro-2H-pyran-4-yl)ureido)piperidin-1-yl)-3-(tetrahydro-2H-pyran-4-ylamino)pyrazine-2-carboxamide], under setting [1], the IC50 was in the range of 1000 to 10000 nM.
